Laboratory results from US10456439B2, “NK3 agonist for use in the treatment of a patient suffering from atrial arrhythmia or fibrillation” (priority 2014, dated 2019).
Entries after “also recorded” stand apart in the source; their conditions may differ. Where a SMILES comes first, the peptide text is derived from it.

Legend:
[1] = biological target: T1, NK-3 receptor (Homo sapiens, UniProt P29371); details: cited from earlier work
T1 sequence (P29371 1-465): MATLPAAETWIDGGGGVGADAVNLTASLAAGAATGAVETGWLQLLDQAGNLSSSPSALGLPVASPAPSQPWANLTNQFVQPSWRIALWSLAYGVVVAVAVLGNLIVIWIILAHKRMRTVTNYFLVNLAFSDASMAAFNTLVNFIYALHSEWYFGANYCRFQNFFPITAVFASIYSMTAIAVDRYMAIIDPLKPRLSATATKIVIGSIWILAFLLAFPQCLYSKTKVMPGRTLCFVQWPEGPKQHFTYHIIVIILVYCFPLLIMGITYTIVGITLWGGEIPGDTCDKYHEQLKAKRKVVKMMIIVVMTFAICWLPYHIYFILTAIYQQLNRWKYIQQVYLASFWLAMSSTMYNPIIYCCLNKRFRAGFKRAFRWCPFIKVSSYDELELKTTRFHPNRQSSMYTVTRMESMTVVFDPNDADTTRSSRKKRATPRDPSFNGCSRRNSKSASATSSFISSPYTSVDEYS

[2] = biological target: NK-1 receptor (Homo sapiens, UniProt P25103); details: cited from earlier work
[3] = test system: left atrium of Langendorff-perfused rabbit heart; assay: Left atrial effective refractory period in Langendorff-perfused rabbit hearts; details: for Longest S1-S2 interval that fails to produce atrial activation (A-ERP): basic cycle length 200 ms; for Effect on atrial effective refractory period, in words / Prolongation of the S1-S2 interval measured in the left atrium: Langendorff-perfused rabbit heart; for Prolongation of the S1-S2 interval measured in the left atrium: difference to control
Protocol: (§1) After the heart was excised, it was cannulated, quickly mounted on a Langendorff perfusion set-up, and perfused at 37° C. with a solution containing (in mmol/L) 128 NaCl, 4.7 KCl, 1.45 CaCl2), 0.6 MgCl2, 27 NaHCO3, 0.4 NaH2PO4, and 11 glucose (pH maintained at 7.4 by equilibration with a mixture of 95% 02 and 5% CO2). The left atrium (ventricle) was stimulated at a basic cycle length of 200 ms, and twice the diastolic stimulus current threshold. […] The effective refractory period was defined as the longest S1-S2 interval failing to produce atrial (ventricular) activation.

[4] = test system: ventricle of Langendorff-perfused rabbit heart; assay: Ventricular effective refractory period in Langendorff-perfused rabbit hearts; details: 20-50 nM Senktide
Protocol: as §1

[5] = test system: left atrium of anesthetized rabbit; assay: In vivo left atrial effective refractory period in the anesthetised rabbit; details: single bolus 11 nmol/kg, basic cycle length 220 ms, control 110 ms
Protocol: Male New Zealand White rabbits were anesthetized with ketamine 50 mg/kg and xylazine 8 mg/kg (and additionally 0.09 mg/kg Temgesic for pain relief) subcutaneously, intubated, and artificially ventilated. Anesthesia was maintained by isoflurane (0.8-1.2%). Catheters for drug infusions and blood pressure recording were inserted into marginal ear veins/arteries. Following thoracotomy, the pericardium was opened to expose the heart. A stimulation- and recording-electrode were placed on the left atrium for epicardial electrophysiological study. The left atrium was stimulated at a basic cycle length of 220 ms, and twice the diastolic stimulus current threshold. […] The effective refractory period was defined as the longest S1-S2 interval failing to produce atrial activation. Approximately 30 minutes after the completion of the preparation when the rabbit was hemodynamically and electrophysiologically stable, control measurements were undertaken.

[6] = test system: human left atrial appendage (LAA); assay: Effective refractory period in human left atrial appendages; details: basic cycle length 600 ms
From the text: Left atrial appendages (LAA) were routinely removed from patients with atrial fibrillation receiving PVI (pulmonary vein isolation) ablation. The LAAs were removed using an endoscopic stapling device (Endo Gia stapler, Tyco Healthcare Group). The tissue samples were transported in 100-mL cooled superfusion fluid (Na^+, 155.5 mmol/L; K^+, 4.7 mmol/L; Ca^2+, 1.45 mmol/L; Mg^2+, 0.6 mmol/L; Cl^−, 136.6 mmol/L; HCO3^−, 27 mmol/L; PO4^3−, 0.4 mmol/L; glucose, 11.1 mmol/L; and heparin, 1000 IE) and submerged in a tissue bath. The superfusion fluid was kept at a stable temperature of 36.5° C. to 37.5° C. and oxygenized with a mixture of 95% O2 and 5% CO2 to maintain a pH of 7.4. LAAs were stimulated at 100 beats per minute at 2-3 times diastolic threshold with a pulse width of 2 ms using an epicardial electrode.
The effective refractory period was defined as the longest S1-S2 interval failing to produce atrial (ventricular) activation.

[7] = biological target: T2, Murine NK3 receptor (Mus musculus, UniProt P47937); details: read-out: Binding (Inhibition of [125I]-[MePhe7]neurokinin B) Murine NK3 receptor, Ki; HEK 293-murine NK3 receptor cells; mean ± SEM; cited from earlier work
T2 construct: expressed in transfected cells; host or cells: HEK 293
T2 sequence (P47937 1-452): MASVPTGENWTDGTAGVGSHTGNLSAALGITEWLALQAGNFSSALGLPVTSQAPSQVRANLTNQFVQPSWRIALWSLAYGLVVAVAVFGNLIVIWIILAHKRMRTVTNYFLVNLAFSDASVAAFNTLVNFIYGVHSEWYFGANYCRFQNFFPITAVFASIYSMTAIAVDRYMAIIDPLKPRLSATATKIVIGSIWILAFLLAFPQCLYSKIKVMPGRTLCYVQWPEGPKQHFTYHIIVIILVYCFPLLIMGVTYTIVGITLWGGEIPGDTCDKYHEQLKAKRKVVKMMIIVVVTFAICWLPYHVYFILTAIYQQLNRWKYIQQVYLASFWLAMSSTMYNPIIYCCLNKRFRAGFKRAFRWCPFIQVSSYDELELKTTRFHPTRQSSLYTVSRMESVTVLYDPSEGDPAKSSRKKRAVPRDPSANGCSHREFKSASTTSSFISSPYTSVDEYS

[8] = biological target: T2, Murine NK3 receptor; details: HEK 293-murine NK3 receptor cells; mean ± SEM; read-out: Ca2+ Mobilization Murine NK3 receptor, EC50; cited from earlier work
[9] = test system: rabbit atrial myocytes; assay: Action potential recording (perforated patch clamp) in rabbit atrial myocytes; details: increasing concentrations, result in words
Protocol: (§2) Male New Zealand White specified pathogen free rabbits (2.5-3.5 kg) were anaesthetized with a combination of 20 mg xylazine and 100 mg ketamine (intramuscularly) and heparinized with a bolus of 1000 IU heparin (intravenously). Subsequently, the animals were killed by 200 mg pentobarbital intravenously, after which the heart was quickly excised and mounted on a langendorff perfusion apparatus. […] Single atrial cells were isolated from the left atrium using the same protocol with a modification consisting of complementing the enzymatic solution with 6.6 pg/mL protease.
(§3) Small aliquots of single cell suspension were introduced into a recording chamber on the stage of an inverted microscope. Cells were allowed to adhere for 5 minutes after which superfusion was started. Single quiescent rod-shaped myocytes with clear cross-striations and smooth surfaces were selected for measurements.
(§4) Voltage control, data acquisition, and analysis were performed using custom-made software.
(§5) Potentials were corrected for liquid junction potential [3]. Signals were low-pass filtered (cut-off frequency: 5 kHz) and digitized at 40 kHz. Cell membrane capacitance (Cm) was estimated by dividing the decay time constant of the capacitive transient in response to 5 mV hyperpolarizing voltage clamp steps from a holding potential of −40 mV, by the series resistance.
(§6) APs were measured with the amphotericin-B-perforated patch clamp technique using normal Tyrode's solution containing (in mM): NaCl 140, KCl 5.4, CaCl2 1.8, MgCl2 1.0, glucose 5.5, HEPES 5.0, pH 7.4 (NaOH). The patch-pipettes (borosilicate glass; 1-3 MΩ) were filled with a ‘standard’ solution containing (in mM): K-gluconate 110, KCl 30, NaCl 5, MgCl2 1, amphotericin-B 0.22, HEPES 10, pH 7.3 (KOH).
(§7) APs were elicited at 2 Hz by 2-ms (1.5×diastolic stimulation threshold) current pulses applied through the patch pipette. […] Values obtained from 10 consecutive APs were averaged.
(§8) The NK-agonists were applied in a cumulative sequence with 5 minutes intervals between increments in concentration. Effects were assessed after equilibration, but not earlier than 3 minutes after application.

[10] = test system: rabbit ventricular myocytes; assay: Action potential recording (perforated patch clamp) in rabbit ventricular myocytes; details: 2 Hz, 1-10 μM substance P or 100 nM Senktide
Protocol: as §2, §3, §4, §5, §6, §7, §8

[11] = biological target: T1, NK-3 receptor; details: cited from earlier work; remark: listed apart in the source
[12] = biological target: T1, NK-3 receptor; set-up: expressed in transfected cells; host or cells: HEK 293; details: read-out: Binding (Inhibition of [125I]-[MePhe7]neurokinin B) Human NK3 receptor, HEK 293-human NK3 receptor cells, mean ± SEM; cited from earlier work
[13] = biological target: T1, NK-3 receptor; set-up: expressed in transfected cells; host or cells: HEK 293; details: HEK 293-human NK3 receptor cells, mean ± SEM, read-out: Ca2+ Mobilization Human NK3 receptor; cited from earlier work
[14] = biological target: T3, NK2-receptor (Homo sapiens, UniProt P21452); details: cited from earlier work
T3 sequence (P21452 1-398): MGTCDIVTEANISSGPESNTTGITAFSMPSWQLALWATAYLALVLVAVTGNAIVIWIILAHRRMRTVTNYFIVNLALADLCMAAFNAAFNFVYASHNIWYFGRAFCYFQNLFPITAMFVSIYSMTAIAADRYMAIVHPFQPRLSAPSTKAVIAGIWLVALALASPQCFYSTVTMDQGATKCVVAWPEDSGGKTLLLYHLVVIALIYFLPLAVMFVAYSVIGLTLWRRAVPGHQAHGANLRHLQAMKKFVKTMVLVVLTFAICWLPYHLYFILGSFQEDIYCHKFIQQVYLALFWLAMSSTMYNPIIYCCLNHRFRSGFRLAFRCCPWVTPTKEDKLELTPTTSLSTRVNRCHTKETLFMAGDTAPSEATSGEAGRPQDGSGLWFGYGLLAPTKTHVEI

Chain of NK-1 receptor (P25103 whole entry, species assumed, the tested form may be a part): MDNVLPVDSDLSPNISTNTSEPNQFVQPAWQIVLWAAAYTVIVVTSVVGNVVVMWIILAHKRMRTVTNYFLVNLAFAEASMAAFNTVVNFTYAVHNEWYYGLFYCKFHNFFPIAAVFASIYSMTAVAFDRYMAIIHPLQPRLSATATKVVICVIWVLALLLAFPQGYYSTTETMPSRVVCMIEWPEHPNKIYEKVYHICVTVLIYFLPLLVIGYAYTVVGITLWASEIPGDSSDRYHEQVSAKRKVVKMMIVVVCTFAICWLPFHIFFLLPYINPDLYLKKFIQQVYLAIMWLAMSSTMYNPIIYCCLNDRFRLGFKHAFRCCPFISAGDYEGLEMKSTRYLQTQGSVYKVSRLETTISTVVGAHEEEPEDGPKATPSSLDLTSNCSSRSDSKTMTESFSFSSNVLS

CC[C@H](C)[C@H](NC(=O)[C@H](Cc1ccccc1)NC(=O)[C@H](C)NC(=O)[C@H](CC(=O)O)NC(=O)[C@H](CCCCN)NC(=O)[C@H](CO)NC(=O)[C@@H]1CCCN1C(=O)[C@@H]1CCC(=O)N1)C(=O)NCC(=O)N[C@@H](CC(C)C)C(=O)N[C@@H](CCSC)C(N)=O [Eledoisin] (HELM PEPTIDE1{[Glp].P.S.K.D.A.F.I.G.L.M.[am]}$$$$V2.0)
NK-3 receptor Affinity (pIC50) [1]: 6.2-6.6 pIC50
NK-1 receptor Affinity (pIC50) [2]: 8.6 pIC50

CSCC[C@H](NC(=O)[C@H](CC(C)C)NC(=O)CNC(=O)[C@@H](NC(=O)[C@H](Cc1ccccc1)NC(=O)[C@H](CCC(N)=O)NC(=O)[C@H](CC(=O)O)NC(=O)[C@H](CO)NC(=O)[C@H](CCCCN)NC(=O)[C@@H]1CCCN1C(=O)[C@@H](NC(=O)[C@@H](N)CC(=O)O)C(C)C)C(C)C)C(N)=O [Kassinin] (H-DVPKSDQFVGLM-NH2)
NK-3 receptor Affinity (pIC50) [1]: 6.7-7.0 pIC50
NK-1 receptor Affinity (pIC50) [2]: 6.6-7.1 pIC50

CSCC[C@H](NC(=O)[C@H](CC(C)C)NC(=O)CNC(=O)[C@H](Cc1ccccc1)N(C)C(=O)[C@H](Cc1ccccc1)NC(=O)[C@H](CC(=O)O)NC(=O)CCC(=O)O)C(N)=O [Senktide, N-(3-carboxy-1-oxopropyl)-L-α-aspartyl-L-phenylalanyl-N-methyl-L-phenylalanylglycyl-L-leucyl-L-methioninamide] (HELM PEPTIDE1{[O=C(O)CCC(=O)[*:2]].D.F.[meF].G.L.M.[am]}$$$$V2.0)
Longest S1-S2 interval that fails to produce atrial activation (A-ERP) ([3]; 750 nM Senktide, control 80 ms): 100 ms
Effect on atrial effective refractory period, in words [3]: prolongs the atrial refractory period
Prolongation of the S1-S2 interval measured in the left atrium [3]: 20 ms
Effect on ventricular effective refractory period (V-ERP) [4]: not affected
Longest S1-S2 interval that fails to produce atrial activation (A-ERP) in vivo [5]: 160 ms
Longest S1-S2 interval that fails to produce atrial activation (ERP) in human LAA ([6]; 50 nM Senktide, control 290 ms): 440 ms
Effective refractory period in human LAA after wash out ([6]; wash out after 50 nM Senktide): 320 ms
Ki [7]: 11.9 ± 2.1 nM
EC50 [8]: 0.15 ± 0.09 nM
Effect on atrial action potential (AP) duration [9]: significantly prolongs the AP duration
Effect on ventricular action potential (AP) duration [10]: absence of effect; also recorded: does not prolong the AP

Asp-Met-His-Asp-Phe-Phe-(Me)Phe-Gly-Leu-Met-NH2 (DMHDFFFGLM; HELM PEPTIDE1{D.M.H.D.F.F.[meF].G.L.M.[am]}$$$$V2.0; N-terminus assumed; SMILES CSCC[C@H](NC(=O)[C@H](CC(C)C)NC(=O)CNC(=O)[C@H](Cc1ccccc1)N(C)C(=O)[C@H](Cc1ccccc1)NC(=O)[C@H](Cc1ccccc1)NC(=O)[C@H](CC(=O)O)NC(=O)[C@H](Cc1c[nH]cn1)NC(=O)[C@H](CCSC)NC(=O)[C@@H](N)CC(=O)O)C(N)=O; listed as Homo sapiens) [[MePhe^7]neurokinin B]
Longest S1-S2 interval that fails to produce atrial activation (A-ERP) ([3]; 20 nM (N-Me-Phe7)-NKB, control 75 ms): 105 ms
Effect on atrial effective refractory period, in words [3]: prolongs the atrial effective refractory period
Prolongation of the S1-S2 interval measured in the left atrium [3]: 30 ms
NK-3 receptor Affinity (pK1) [1]: 8.7-9.6 pK1
NK-3 receptor Affinity (pEC50) [11]: 8.9 pEC50
Ki [7]: 0.6 ± 0.1 nM
EC50 [8]: 0.26 ± 0.13 nM
Ki [12]: 1.8 ± 1 nM
EC50 [13]: 0.3 ± 0.1 nM

Neurokinin A: compound having CAS registry No. 86933-74-6
NK-3 receptor Affinity (pK1) [1]: 5.5-6.3 pK1
NK-3 receptor Affinity (pEC50) [11]: 7.4 pEC50
Ki [7]: 785 ± 195 nM
EC50 [8]: 0.82 ± 0.24 nM
Ki [12]: 3300 ± 240 nM
EC50 [13]: 22 ± 4 nM

Neurokinin B: natural NK3-receptor agonist, CAS registry No. 86933-75-7
NK2-receptor Affinity (pK1) [14]: 5.0-7.7 pK1
Ki [7]: 2.3 ± 0.3 nM
EC50 [8]: 0.09 ± 0.02 nM

RSRTRQFYGLM [Hemokinin-1]
NK-3 receptor Affinity (pK1) [1]: 8.6-9.3 pK1
NK-1 receptor Affinity (pK1) [2]: 9.8-11.7 pK1
NK2-receptor Affinity (pK1) [14]: 6.3 pK1

Substance P: agonist of multiple neurokinin receptors, CAS registry No. 33507-63-0
Ki [7]: 4920 ± 2250 nM
EC50 [8]: 5.4 ± 2.4 nM
Effect on atrial action potential (AP) duration [9]: significantly prolongs the AP duration
Effect on ventricular action potential (AP) duration [10]: does not prolong the AP
Effect on ventricular action potential (AP) duration ([10]; listed as substance P): absence of effect

[Sar9, Met (O2)11]-Substance P
Effect on atrial action potential (AP) duration [9]: absence of effect; also recorded: does not affect AP duration
